This note sets out measurements from US9676771B2, “Compounds for inhibiting drug-resistant strains of HIV-1 integrase” (priority 2013, dated 2017).

Series [1] addresses HIV-1 integrase (Human immunodeficiency virus type 1 group M subtype B, UniProt P12497). The series is described as follows: biochemical. The series is classed as biochemical. The procedure: In Vitro Integrase Assay.
Integrase reactions were carried out by adding drugs or an equivalent volume of 100% dimethyl sulfoxide (DMSO; used as the drug solvent) to a mixture of 20 nM DNA and 400 nM integrase in 50 mM morpholinepropanesulfonic acid (pH 7.2), 7.5 mM MgCl2, and 14 mM 2-mercaptoethanol. Reactions were performed at 37° C. for 2 h and quenched by the addition of an equal volume of loading buffer (formamide containing 1% sodium dodecyl sulfate, 0.25% bromophenol blue, and xylene cyanol). […] Dried gels were visualized using a Typhoon 8600 (GE Healthcare, Piscataway, N.J.). Densitometric analyses were performed using ImageQuant 5.1 software from GE Healthcare.

A short description of series [2]: in vitro. The format is cell-based, human. To be noted: human, 50% reduction in the level of ATP in HOS cells. Here is the method: Cellular Cytotoxicity Assay.
On the day of the screen, cells were treated with compounds at the appropriate concentration range chosen and incubated at 37° C. for 48 hrs. Cytotoxicity was measured by monitoring ATP levels via a luciferase reporter assay. Cells were lysed in 50 μL cell lysis buffer (PerkinElmer, Waltham, Mass.) and shaken at 700 rpm at room temperature for 5 mins After the addition of 50 μL of ATPlite buffer (PerkinElmer) directly onto the lysed cells and shaking at 700 rpm at room temperature for 5 mins, ATP levels were monitored by measuring luciferase activity using a microplate reader. Activity was normalized to cytotoxicity in the absence of target compounds. KaleidaGraph (Synergy Software, Reading, Pa.) was used to perform regression analysis on the data. CC50 values were determined from the fit model.

Series [3] concerns HIV-1 constructs containing wild-type IN. The series is described as follows: microbe, parasite or virus in culture. The format is cell-based. To be noted: for EC50: Human immunodeficiency virus 1. The text has this: (§1) Single-Round HIV-1 Infectivity Assay.
(§2) Human embryonyl kidney cell culture cell line 293 was acquired from the American type Culture Collection (ATCC).
(§3) The virus-containing supernatants were then harvested, clarified by low-speed centrifugation, filtrated, and diluted for preparation in infection assays. […] Activity was normalized to infectivity in the absence of target compounds. KaleidaGraph (Synergy Software, Reading, Pa.) was used to perform regression analysis on the data. EC50 values were determined from the fit model.

Series [4] concerns HIV-1 constructs containing mutant IN G140S-Q148H. The series can be described thus: microbe, parasite or virus in culture. The series is classed as cell-based. To be noted: for EC50: Human immunodeficiency virus 1, Table 3, G140S-Q148H double mutant, read-out: EC50 (nM, IN Mutants) SH.
Source text: as §1, §2, §3
(§4) pNLNgoMIVR^−ΔEnv.LUC has been described previously (Zhao et al. 2008). The integrase codon reading frame was removed from pNLNgoMIVR^−ΔEnv LUC (between KpnI and SalI sites) and placed between the KpnI and SalI sites of pBluescript II KS+. Using that construct as the wild-type template, we prepared the following HIV-1 Integrase-resistant mutants via the QuikChange II XL (Stratagene, La Jolla, Calif.) site-directed mutagenesis protocol: H51Y, T66I, E92Q, G118R, Y143R, Q148H, Q148K, N155H, R263K, G140S+Q148H, G140A+Q148K, E138K+Q148K, and H51Y+R263K. The following sense with cognate antisense (not shown) oligonucleotides (Integrated DNA Technologies, Coralville, Iowa) were used in the mutagenesis: H51Y, 5′-[…]-3; T66I, 5′-[…]-3′; E92Q, 5′-[…]-3′; G118R, 5′-[…]-3′; E138K, 5′-[…]-3; G140A, 5′-[…]-3; G140S, 5′-[…]-3′; Y143R, 5′-[…]-3′; Q148H, 5′-[…]-3′; Q148K, 5′-[…]-3; N155H, 5′-[…]-3′; R263K 5′-[…]-3′. The double mutation G140S+Q148H was constructed by using the previously generated Q148H mutant and the appropriate oligonucleotide for the 2nd mutation, G140S. The double mutation G140A+Q148K was made by using the Q148K mutant and the appropriate oligonucleotide for the 2nd mutation, G140A. The double mutation E138K+Q148K was made by using the Q148K mutant and the appropriate oligonucleotide for the 2nd mutation, E138K. The double mutation H51Y+R263K was constructed by using the previously generated H51Y mutant and the appropriate oligonucleotides for the 2nd mutation, R263K. The DNA sequence of each construct was verified independently by DNA sequence determination. […] These DNA sequences were additionally checked independently by DNA sequence determination.

For series [5], the system named is HIV-1 constructs containing mutant IN N155H. The series can be described thus: microbe, parasite or virus in culture. To be noted: for EC50: Human immunodeficiency virus 1. The format is cell-based.
Source text: as §1, §2, §3, §4

Series [6] deals with HIV-1 constructs containing mutant IN Y143R. The series is described as follows: microbe, parasite or virus in culture. The format is cell-based. To be noted: for EC50: Human immunodeficiency virus 1.
Source text: as §1, §2, §3, §4

Where [7] appears, read: Table 1, 3′-processing, read-out: IC50 Values 3′-Processing.
[8] abbreviates: Table 1, strand transfer, read-out: IC50 Values Strand transfer.
[9] abbreviates: Table 3, WT IN, read-out: EC50 (nM, WT).
The mark [10] stands for this setting: Table 3, read-out: EC50 (nM, IN Mutants) N155H.
[11] abbreviates: Table 3, read-out: EC50 (nM, IN Mutants) Y143R.
[12] abbreviates: Table 4, 3′-processing, read-out: IC50 (3^+-Processing).
Setting [13] is: Table 4, strand transfer, read-out: IC50 (Strand Transfer).

Read-outs that look alike come from different tables or passages of the source.

Broadly, the IC50 is the midpoint of a concentration-inhibition curve. In general, CC50 refers to the concentration at which the toxic effect on the cells reaches its halfway point. Usually EC50 stands for the concentration at which the effect is half-maximal.

Consider `O=C(NCc1ccc(F)c(Cl)c1)c1c(O)c2cccnc2n(O)c1=O` [XZ365, N-(3-chloro-4-fluorobenzyl)-1,4-dihydroxy-2-oxo-1,2-dihydro-1,8-naphthyridine-3-carboxamide], for which the IC50 in series [1] (setting [7]) came to 4.7 ± 0.7 µM; in series [1] (setting [8]) it was 0.027 ± 0.006 µM. Besides, the CC50 in series [2] (Table 2) was 102 µM; in series [2] (Table 3), 102 ± 17.8 µM. Also, the SI in series [3] is on record as 2,911. Further, the “Si (selectivity index)” value in series [3] is given as 2,920. For the same compound, the EC50 is 35 nM in series [3] (Table 2, cells infected with lentiviral vector harboring WT IN, read-out: EC50); 34.9 ± 12.3 nM in series [3] (setting [9]); 489 ± 61.8 nM in series [4]; 148 ± 8.3 nM in series [5] (setting [10]); 53.6 ± 9.2 nM in series [6] (setting [11]). Further, in series [4], the “Integrase Mutants SH (G140S-Q148H), fold-change in EC50 relative to WT” value was found to be 14 x. For the same compound, in series [5], the “Integrase Mutants N155H, fold-change in EC50 relative to WT” value came out at 4 x. Besides, the “Integrase Mutants Y143R, fold-change in EC50 relative to WT” value in series [6] stood at 2 x.

Turning to `O=C(NCc1ccc(F)cc1F)c1c(Nc2ccccc2)c2cccnc2n(O)c1=O` [XZ377, N-(2,4-difluorobenzyl)-1-hydroxy-2-oxo-4-(phenylamino)-1,2-dihydro-1,8-naphthyridine-3-carboxamide], the IC50 in series [1] (read-out: IC50 (3^+-Processing)) was 6.9 ± 1.1 µM; in series [1] (read-out: IC50 (Strand Transfer)) it was 0.018 ± 0.006 µM. In addition, the cytotoxic concentration (CC50) in series [2] (Table 3) is above 250 µM. In series [3], the “Si (selectivity index)” value was >17,857. The values for the EC50 in series [3] (setting [9]), in series [5] (setting [10]) and in series [6] (setting [11]) were 14.2 ± 1.9 nM, 110 ± 17.2 nM and 24.9 ± 6.4 nM, respectively.

On to `Nc1ccc(-c2ccc(Nc3c(C(=O)NCc4ccc(F)cc4F)c(=O)n(O)c4ncccc34)cc2)cc1` [XZ387, 4-((4′-amino-[1,1′-biphenyl]-4-yl)amino)-N-(2,4-difluorobenzyl)-1-hydroxy-2-oxo-1,2-dihydro-1,8-naphthyridine-3-carboxamide], for which the IC50 in series [1] (setting [12]) came out at 80 ± 11 µM; in series [1] (setting [13]) it was 0.13 ± 0.02 µM. Also, in series [2] (Table 3), the CC50 is above 250 µM. Moreover, the half-maximal effective concentration (EC50) worked out at 6.3 ± 2.4 nM in series [3] (setting [9]), 423 ± 168 nM in series [5] (setting [10]) and 102 ± 1.4 nM in series [6] (setting [11]). In addition, the “Si (selectivity index)” value in series [3] (Table 3, ratio of CC50 to EC50) is given as >25,000.

As to `O=C(NCc1ccc(F)c(Cl)c1)c1cc2cccnc2n(O)c1=O` [XZ391, N-(3-chloro-4-fluorobenzyl)-1-hydroxy-2-oxo-1,2-dihydro-1,8-naphthyridine-3-carboxamide], the IC50 in series [1] (setting [7]) is 9.4 ± 1.5 µM; in series [1] (setting [8]) it was 0.014 ± 0.003 µM. Further, the CC50 in series [2] (Table 3) was above 250 µM. For the same compound, the “Si (selectivity index)” value in series [3] was >6,667. Further, the EC50 in series [3] (setting [9]) came out at 37.5 ± 14.5 nM; in series [5] (setting [10]), 90.3 ± 5.6 nM; in series [6] (setting [11]), 33.9 ± 5.5 nM.

Regarding `O=C(NCc1ccc(F)c(F)c1)c1cc2cccnc2n(O)c1=O` [XZ392, N-(3,4-difluorobenzyl)-1-hydroxy-2-oxo-1,2-dihydro-1,8-naphthyridine-3-carboxamide], the figures for the IC50 in series [1] (setting [7]) and in series [1] (setting [8]) were 13.6 ± 1.8 µM and 0.017 ± 0.003 µM, respectively. The CC50 in series [2] (Table 3) was above 250 µM. Also, the “Si (selectivity index)” value in series [3] is recorded as >4,058. In addition, the EC50 in series [3] (setting [9]) is 61.6 ± 13.8 nM; in series [5] (setting [10]), 2200 ± 61 nM; in series [6] (setting [11]), 39.7 ± 12.5 nM.

Consider `O=C(NCc1ccc(F)cc1)c1cc2cccnc2n(O)c1=O` [XZ393, N-(4-fluorobenzyl)-1-hydroxy-2-oxo-1,2-dihydro-1,8-naphthyridine-3-carboxamide], for which the IC50 in series [1] (setting [7]) was 8.9 ± 1 µM; in series [1] (setting [8]), 0.016 ± 0.003 µM. Besides, the CC50 in series [2] (Table 3) was above 250 µM. Moreover, the EC50 was 25.1 ± 9.4 nM in series [3] (setting [9]), 268 ± 89 nM in series [5] (setting [10]) and 24.1 ± 5.3 nM in series [6] (setting [11]). Further, in series [3] (Table 3, ratio of CC50 to EC50), the “Si (selectivity index)” value is recorded as >9,960.

Turning to `COC(=O)[C@@H](C)Nc1c(C(=O)NCc2ccc(F)cc2F)c(=O)n(O)c2ncccc12` [XZ395, (R)-methyl 2-((3-((2,4-difluorobenzyl)carbamoyl)-1-hydroxy-2-oxo-1,2-dihydro-1,8-naphthyridin-4-yl)amino)propanoat], in series [2] (Table 3), the CC50 was above 250 µM. In addition, the EC50 in series [3] (setting [9]) is 11.3 ± 4.7 nM; in series [4], 89.3 ± 26.3 nM; in series [6] (setting [11]), 8.1 ± 1.7 nM.

As to `COC(=O)[C@H](Nc1c(C(=O)NCc2ccc(F)cc2F)c(=O)n(O)c2ncccc12)c1ccccc1` [XZ397, (R)-methyl 2-((3-((2,4-difluorobenzyl)carbamoyl)-1-hydroxy-2-oxo-1,2-dihydro-1,8-naphthyridin-4-yl)amino)-2-phenylacetate], the CC50 in series [2] (Table 3) is above 250 µM. Besides, the EC50 in series [3] (setting [9]) is 7.4 ± 3.3 nM; in series [5] (setting [10]), 21.6 ± 3.7 nM.

Turning to `COC(=O)CNc1c(C(=O)NCc2ccc(F)cc2F)c(=O)n(O)c2nc(OC)ccc12` [XZ407, methyl 2-((3-((2,4-difluorobenzyl)carbamoyl)-1-hydroxy-7-methoxy-2-oxo-1,2-dihydro-1,8-naphthyridin-4-yl)amino)acetate], the IC50 in series [1] (setting [12]) was determined as 20 ± 2 µM; in series [1] (setting [13]) it was 0.042 ± 0.005 µM. In series [2] (Table 5), the CC50 came to 11.7 ± 3.1 µM. The EC50 in series [3] (Table 5, WT IN, read-out: EC50 (nM, WT)) turned out to be 32 ± 13 nM; in series [5] (Table 5, read-out: EC50 (nM, IN Mutants) N155H), 31300 ± 320 nM; in series [6] (Table 5, read-out: EC50 (nM, IN Mutants) Y143R), 51.5 ± 12.6 nM. In series [3] (Table 5, ratio of CC50 to EC50), the SI is reported as 366.

With `Nc1c(C(=O)NCc2ccc(F)cc2F)c(=O)n(O)c2ncc(CCCC3CCCCC3)cc12` [XZ428, 4-Amino-6-(3-cyclohexylpropyl)-N-(2,4-difluorobenzyl)-1-hydroxy-2-oxo-1,2-dihydro-1,8-naphthyridine-3-carboxamide], the IC50 is 289 ± 49 µM in series [1] (Table 7, 3′-processing, read-out: IC50 (μM) 3′-P) and 3.28 ± 0.468 µM in series [1] (Table 7, strand transfer, read-out: IC50 (μM) ST). For the same compound, the CC50 in series [2] (Table 8) is 27.4 µM. Further, the EC50 in series [3] (Table 8, WT IN, read-out: EC50 (nM, WT)) turned out to be 53.4 nM; in series [5] (Table 8, read-out: EC50 (nM, IN mutants) N155H) it was 146 nM; in series [6] (Table 8, read-out: EC50 (nM, IN mutants) Y143R) it was 112 nM.
